Results from ChEMBL document CHEMBL1811782, “The 2010 Philip S. Portoghese Medicinal Chemistry Lectureship: addressing the "core issue" in the design of estrogen receptor ligands” (J Med Chem, 2011).

Columns and labels:
[1] = Relative binding affinity to estrogen receptor relative to estradiol
[2] = target: T1, Estrogen receptor (Homo sapiens) (UniProt P03372); test: Ratio of estradiol IC50 to compound IC50 for ERalpha receptor by relative binding affinity assay
T1 sequence (whole entry): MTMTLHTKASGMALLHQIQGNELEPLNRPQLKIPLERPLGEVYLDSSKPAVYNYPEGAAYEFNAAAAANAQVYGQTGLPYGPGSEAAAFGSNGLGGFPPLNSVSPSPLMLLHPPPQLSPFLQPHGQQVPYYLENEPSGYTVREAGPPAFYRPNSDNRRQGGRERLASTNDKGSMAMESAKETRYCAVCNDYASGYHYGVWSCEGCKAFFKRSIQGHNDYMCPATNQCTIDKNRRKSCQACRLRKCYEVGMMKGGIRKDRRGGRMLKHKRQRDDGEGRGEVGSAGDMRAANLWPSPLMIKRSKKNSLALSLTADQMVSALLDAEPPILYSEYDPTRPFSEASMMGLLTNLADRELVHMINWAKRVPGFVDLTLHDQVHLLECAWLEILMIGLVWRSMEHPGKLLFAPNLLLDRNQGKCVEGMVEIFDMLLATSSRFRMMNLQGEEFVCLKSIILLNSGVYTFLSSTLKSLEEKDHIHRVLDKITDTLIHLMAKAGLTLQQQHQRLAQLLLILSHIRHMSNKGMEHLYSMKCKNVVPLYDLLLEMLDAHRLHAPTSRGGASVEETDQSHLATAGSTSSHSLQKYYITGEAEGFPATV

[3] = target: Estrogen receptor beta (Homo sapiens) (UniProt Q92731); test: Ratio of estradiol IC50 to compound IC50 for ERbeta receptor by relative binding affinity assay
Sequence of Estrogen receptor beta (Homo sapiens) (Q92731 whole entry): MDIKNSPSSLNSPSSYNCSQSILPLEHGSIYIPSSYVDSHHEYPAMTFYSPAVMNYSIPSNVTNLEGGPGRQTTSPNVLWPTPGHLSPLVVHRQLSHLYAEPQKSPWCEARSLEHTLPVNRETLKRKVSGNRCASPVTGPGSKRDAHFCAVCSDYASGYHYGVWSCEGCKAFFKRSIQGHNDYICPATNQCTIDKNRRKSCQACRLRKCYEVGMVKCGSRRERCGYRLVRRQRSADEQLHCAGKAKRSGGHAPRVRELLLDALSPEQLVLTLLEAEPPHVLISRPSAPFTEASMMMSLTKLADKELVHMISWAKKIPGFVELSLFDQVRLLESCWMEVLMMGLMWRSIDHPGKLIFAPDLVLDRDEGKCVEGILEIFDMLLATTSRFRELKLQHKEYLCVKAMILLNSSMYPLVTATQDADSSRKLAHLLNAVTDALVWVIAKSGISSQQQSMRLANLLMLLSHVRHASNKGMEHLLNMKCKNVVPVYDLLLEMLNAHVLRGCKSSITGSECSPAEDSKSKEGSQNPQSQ

Row | RBA [1] | Ratio IC50 [2] | Ratio IC50 [3] | SMILES
1 | – | 10 | 5.8 | Cc1cccc(C)c1B(c1c(C)cccc1C)N(CC(F)(F)F)c1ccc(O)cc1
2 | – | 0.16 | 0.12 | CCCCCN(B(c1c(C)cc(C)cc1C)c1c(C)cc(C)cc1C)c1ccc(O)cc1
3 | – | 0.013 | 0.18 | Cc1cc(C)c(B(Nc2ccc(O)cc2)c2c(C)cc(C)cc2C)c(C)c1
4 | – | 1.3 | 1.1 | CCN(B(c1c(C)cc(C)cc1C)c1c(C)cc(C)cc1C)c1ccc(O)cc1
5 | – | 2.2 | 1.3 | Cc1cc(C)c(B(c2c(C)cc(C)cc2C)N(CC(F)(F)F)c2ccc(O)cc2)c(C)c1
6 | – | 1.3 | 3.1 | Cc1cc(C)c(B(c2c(C)cc(C)cc2C)N(C)c2ccc(O)cc2)c(C)c1

Second part, the compound before the results:

Row | SMILES | RBA [1] | Ratio IC50 [2] | Ratio IC50 [3]
7 | CCc1c(-c2ccc(O)cc2)n[nH]c1-c1ccc(O)cc1 | 0.02% | – | –
8 | CCc1c(-c2ccc(O)cc2)nn(-c2ccccc2)c1-c1ccc(O)cc1 | 14% | – | –
9 | CCc1c(-c2ccc(O)cc2)nc(-c2ccccc2)n1-c1ccc(O)cc1 | 0.37% | – | –
10 | Cc1cccc(C)c1B(c1c(C)cccc1C)N(C)c1ccc(O)cc1 | – | 23 | 16
11 | CCn1c(-c2ccc(O)cc2)nc(-c2ccc(O)cc2)c1-c1ccc(O)cc1 | 0.38% | – | –
12 | Oc1ccc(-c2cc(-c3ccc(O)cc3)[nH]n2)cc1 | 0.009% | – | –
13 | Oc1ccc(-c2cc(-c3ccc(O)cc3)n(-c3ccccc3)n2)cc1 | 0.03% | – | –
14 | CCn1c(-c2ccc(O)cc2)nc(-c2ccccc2)c1-c1ccc(O)cc1 | 0.25% | – | –
15 | CCc1c(-c2ccc(O)cc2)nn(-c2ccc(O)cc2)c1-c1ccc(O)cc1 | 19% | – | –
